In US20080262049A1, “Therapeutic Agent for Hematopoietic Tumor” (KYOWA HAKKO KOGYO CO., LTD., priority 2005, published 2008):
Counter-ions that a name gives are not always drawn.

What was measured:
[1] = tested on: human acute myeloid leukemia MV-4-11 cells; test: Cell growth inhibition test on acute myeloid leukemia cells (XTT), MV-4-11; assay type: cell-based; settings: MV4-11, same manner as Test Example 1, read-out: growth inhibitory activity, GI50 value
Experimental: (§1) RS4;11 cells (20000 cells/well), K-562 cells (1000 cells/well), or NCI-H929 cells (15000 cells/well) were seeded in each well of 96-well plates (Nunc, catalog No. 167008), and cultured overnight. Test compounds diluted stepwise were added, and the cells were further cultured for 72 hours (final volume: 100 μL/well). Fifty μL XTT labeling mixture of Cell Proliferation Kit II (XTT) (Roche Diagnostics, catalog No. 1465015) was added to each well, and the plates were incubated at 37° C. After 4 hours, absorbance at 490 nm (reference wavelength: 655 nm) was measured with a plate reader (Molecular Device, SpectraMax 340PC^384). Growth ratios of the cells in the wells treated with the test compound was calculated based on the growth ratio of the cells in the control well treated with solvent (dimethyl sulfoxide (DMSO)) for 72 hours, which was defined as 100%.
(§2) As cancer cell lines, human acute myeloid leukemia MV-4-11 cells (ATCC No. CRL-9591) and human non-Hodgkin's lymphoma SR cells (ATCC No. CRL-2262) were used. The cells were cultured at 37° C. in a 5% carbon dioxide atmosphere by using the mediums mentioned below, respectively.
(§3) In the same manner as that of Test Example 1, the cells were seeded (8000 to 16000 cells/well, respectively) in each well of 96-well plates (Nunc, catalog No. 167008), and growth ratios of the cells treated with test compounds were calculated. Measurement of absorbance was performed at 3 to 4 hours after the addition of the XTT labeling mixture.

[2] = tested on: human acute lymphoblastic leukemia RS4;11 cells; test: Cell growth inhibition test against hematopoietic tumor cell lines (XTT), RS4;11; assay type: cell-based; settings: 72 hours culture with compound, read-out: growth inhibitory activity, GI50 value
Source text: (§4) As hematopoietic tumor cell lines, human acute lymphoblastic leukemia RS4;11 cells (ATCC No. CRL-1873), human chronic myeloid leukemia K-562 cells (ATCC No. CCL-243), and human multiple myeloma NCI-H929 cells (ATCC No. CRL-9068) were used. For the culture of the cells, RPMI 1640 Medium (Invitrogen, catalog No. 11875-093) containing 10% fetal bovine serum (Invitrogen, catalog No. 10099-141), 10 mmol/L 4-(2-hydroxyethyl)-1-piperazinethanesulfonic acid (HEPES) buffer (ICN Biomedicals, catalog No. 1688449), 1 mmol/L sodium pyruvate (Invitrogen, catalog No. 11360-070), 4.5 g/L glucose (Sigma-Aldrich, catalog No. G8769), 100 units/mL penicillin (Invitrogen, catalog No. 15140-122) and 100 μg/mL streptomycin (Invitrogen, catalog No. 15140-122) was used. The cells were cultured at 37° C. in a 5% carbon dioxide atmosphere.
as §1

[3] = tested on: human chronic myeloid leukemia K-562 cells; test: Cell growth inhibition test against hematopoietic tumor cell lines (XTT), K-562; assay type: cell-based; settings: K562, 72 hours culture with compound, read-out: growth inhibitory activity, GI50 value
Source text: as §4, §1

[4] = target: T1, recombinant human Eg5 motor domain protein (Homo sapiens, UniProt P52732); test: Eg5 enzyme inhibition test (ATPase activity); assay type: biochemical; settings: for inhibition of the ATPase activity of Eg5 (in words): 30° C., 30 minutes, absorbance at 360 nm; for Eg5 inhibitory activity compared with the corresponding racemic mixture (in words): versus Compounds 3, 4, 6, 7, 20, 14, 9, 8, the respectively corresponding racemic mixtures
T1 construct: A plasmid expressing the motor domain of human Eg5 was constructed; made in house; host or cells: Escherichia coli BL21 (DE3)
T1 sequence (P52732 18-359 limits assumed): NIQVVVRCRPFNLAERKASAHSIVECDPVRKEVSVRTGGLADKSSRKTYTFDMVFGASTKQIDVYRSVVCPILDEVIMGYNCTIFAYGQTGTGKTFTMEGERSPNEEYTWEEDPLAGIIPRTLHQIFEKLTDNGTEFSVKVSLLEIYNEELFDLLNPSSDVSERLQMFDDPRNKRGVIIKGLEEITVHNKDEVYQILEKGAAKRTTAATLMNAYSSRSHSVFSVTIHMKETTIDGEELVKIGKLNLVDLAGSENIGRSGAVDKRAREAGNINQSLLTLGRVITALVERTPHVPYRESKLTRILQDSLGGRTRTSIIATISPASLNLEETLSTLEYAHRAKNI
Experimental: A recombinant human Eg5 motor domain protein was prepared by referring to the literature [Biochemistry, Vol. 35, p. […] A plasmid expressing the motor domain of human Eg5 was constructed, and transformed into Eseherichia coli BL21 (DE3). The transformant was cultured at 25° C., and when the OD600 reached 0.74, isopropyl-β-D-thiogalactoside was added at a final concentration of 0.5 mmol/L. The transformant was further cultured for 4 hours, and then the culture medium was centrifuged to collect the cells. The cells were suspended in a buffer and ultrasonicated, and then the sonicated solution was centrifuged to recover the supernatant. The supernatant was purified by cation exchange column chromatography to obtain a partially purified sample. Furthermore, the partially purified sample was purified by gel filtration column chromatography to obtain a finally purified sample.
Measurement of the ATPase activity of Eg5 was carried out by referring to the literatures [EMBO Journal, Vol. 13, p. […] Solution A was dispensed into each well of a 96-well plate as 45 μL portions. Solution B was used to serially dilute a test compound. The diluted test compound solutions in a volume of 30 μL were mixed with Solution A added beforehand in each well of the 96-well plate to start the enzymatic reaction. The enzymatic reaction was performed at 30° C. for 30 minutes. […] The relative activity was calculated to calculate IC50 value.

[5] = tested on: human multiple myeloma NCI-H929 cells; test: Cell growth inhibition test against hematopoietic tumor cell lines (XTT), NCI-H929; assay type: cell-based; settings: 72 hours culture with compound, read-out: growth inhibitory activity, GI50 value
Source text: as §4, §1

[6] = tested on: human non-Hodgkin's lymphoma SR cells; test: Cell growth inhibition test on non-Hodgkin's lymphoma cells (XTT), SR; assay type: cell-based; settings: same manner as Test Example 1, read-out: growth inhibitory activity, GI50 value
Experimental: as §1, §2, §3

SMILES | melting point | GI50 [1] | GI50 [2] | GI50 [3] | Eg5 inhibitory activity compared with the corresponding racemic mixture (in words) [4] | GI50 [5] | GI50 [6] | inhibition of the ATPase activity of Eg5 (in words) [4]
CC(=O)N1N=C(N2CCCCC2=O)SC1(CCNS(C)(=O)=O)c1ccccc1 (racemic) [Compound 20, N-{2-[3-Acetyl-5-(2-oxopiperidino)-2-phenyl-2,3-dihydro-1,3,4-thiadiazol-2-yl]ethyl}methanesulfonamide] | – | – | – | – | – | – | – | inhibited the ATPase activity of Eg5 in a concentration-dependent manner
CC(=O)N1N=C(N2CCCC2=O)SC1(CCNS(C)(=O)=O)c1ccccc1 (centres unmarked) [Compound g, N-{2-[3-Acetyl-5-(2-oxopyrrolidin-1-yl)-2-phenyl-2,3-dihydro-1,3,4-thiadiazol-2-yl]ethyl}methanesulfonamide] | 137 to 140 °C | – | – | – | – | – | – | –
CC(C)(C)C(=O)NC1=NN(C(=O)C(C)(C)C)C(CN)(c2ccccc2)S1 (centres unmarked) [Compound j, N-[5-Aminomethyl-4-(2,2-dimethylpropionyl)-5-phenyl-4,5-dihydro-1,3,4-thiadiazol-2-yl]-2,2-dimethylpropanamide] | – | – | < 10 µM | < 10 µM | – | < 10 µM | – | –
CC(C)(C)C(=O)NC1=NN(C(=O)C(C)(C)C)C(CCCC(=O)NCCO)(c2ccccc2)S1 (single isomer, unassigned) [Compound o, 4-[3-(2,2-Dimethylpropionyl)-5-(2,2-dimethylpropionylamino)-2-phenyl-2,3-dihydro-1,3,4-thiadiazol-2-yl]-N-(2-hydroxyethyl)butanamide] | – | < 10 µM | < 10 µM | < 10 µM | stronger inhibitory activities | < 10 µM | < 10 µM | inhibited the ATPase activity of Eg5 in a concentration-dependent manner
CCNCCS(=O)(=O)NCCC1(c2ccccc2)SC(NC(=O)C(C)(C)C)=NN1C(=O)C(C)(C)C (racemic) [Compound 14, N-{4-(2,2-Dimethylpropionyl)-5-[2-(2-ethylaminoethanesulfonylamino)-ethyl]-5-phenyl-4,5-dihydro-1,3,4-thiadiazol-2-yl}-2,2-dimethylpropanamide] | – | – | – | – | – | – | – | inhibited the ATPase activity of Eg5 in a concentration-dependent manner

Continued, in another order:

melting point | GI50 [1] | GI50 [2] | GI50 [3] | Eg5 inhibitory activity compared with the corresponding racemic mixture (in words) [4] | GI50 [5] | GI50 [6] | SMILES | inhibition of the ATPase activity of Eg5 (in words) [4]
187 to 190 °C | – | – | – | – | – | – | CC(=O)N1N=C(NC(=O)C(C)(C)C)SC1(CCNS(C)(=O)=O)c1ccccc1 (single isomer, unassigned; (-)) [Compound f, (−)-N-[4-Acetyl-5-(2-methanesulfonylaminoethyl)-5-phenyl-4,5-dihydro-1,3,4-thiadiazol-2-yl]-2,2-dimethylpropanamide] | –
– | < 10 µM | < 10 µM | < 10 µM | stronger inhibitory activities | < 10 µM | < 10 µM | CCNCCS(=O)(=O)NCCC1(c2ccccc2)SC(NC(=O)C(C)(C)C)=NN1C(=O)C(C)(C)C (single isomer, unassigned) [Compound i, N-{4-(2,2-Dimethylpropionyl)-5-[2-(2-ethylaminoethanesulfonylamino)-ethyl]-5-phenyl-4,5-dihydro-1,3,4-thiadiazol-2-yl}-2,2-dimethylpropanamide] | inhibited the ATPase activity of Eg5 in a concentration-dependent manner
– | < 10 µM | < 10 µM | < 10 µM | stronger inhibitory activities | < 10 µM | < 10 µM | CC(C)C(=O)N1N=C(NC(=O)C(C)(C)C)SC1(CCNS(C)(=O)=O)c1ccccc1 (single isomer, unassigned; (-)) [Compound d, (−)-N-[4-Isobutyryl-5-(2-methanesulfonylaminoethyl)-5-phenyl-4,5-dihydro-1,3,4-thiadiazol-2-yl]-2,2-dimethylpropanamide] | inhibited the ATPase activity of Eg5 in a concentration-dependent manner
– | < 10 µM | < 10 µM | < 10 µM | stronger inhibitory activities | < 10 µM | < 10 µM | CCC(=O)N1N=C(NC(=O)C(C)(C)C)SC1(CCNS(C)(=O)=O)c1ccccc1 (single isomer, unassigned; (-)) [Compound b, (−)-N-[5-(2-Methanesulfonylaminoethyl)-5-phenyl-4-propionyl-4,5-dihydro-1,3,4-thiadiazol-2-yl]-2,2-dimethylpropanamide] | inhibited the ATPase activity of Eg5 in a concentration-dependent manner
– | < 10 µM | < 10 µM | < 10 µM | stronger inhibitory activities | < 10 µM | < 10 µM | CCNCCS(=O)(=O)NCC1(c2ccccc2)SC(NC(=O)C(C)(C)C)=NN1C(=O)C(C)(C)C (single isomer, unassigned; (-)) [Compound l, (−)-N-[4-(2,2-Dimethylpropionyl)-5-(2-ethylaminoethanesulfonylaminomethyl)-5-phenyl-4,5-dihydro-1,3,4-thiadiazol-2-yl]-2,2-dimethylpropanamide] | inhibited the ATPase activity of Eg5 in a concentration-dependent manner
175 to 182 °C | – | – | – | – | – | – | CC(C)(C)C(=O)NC1=NN(C(=O)C(C)(C)C)C(CN)(c2ccccc2)S1 (centres unmarked) (as salt: hydrochloride) [Compound j, N-[5-Aminomethyl-4-(2,2-dimethylpropionyl)-5-phenyl-4,5-dihydro-1,3,4-thiadiazol-2-yl]-2,2-dimethylpropanamide] | –
– | < 10 µM | < 10 µM | < 10 µM | stronger inhibitory activities | < 10 µM | < 10 µM | CC(C)(C)C(=O)NC1=NN(C(=O)C(C)(C)C)C(CCNS(C)(=O)=O)(c2ccccc2)S1 (single isomer, unassigned; (-)) [Compound a, (−)-N-[4-(2,2-Dimethylpropionyl)-5-(2-methanesulfonylaminoethyl)-5-phenyl-4,5-dihydro-1,3,4-thiadiazol-2-yl]-2,2-dimethylpropanamide] | inhibited the ATPase activity of Eg5 in a concentration-dependent manner
